HELM strings list units from the 5' end as sugar, base in round brackets, then linkage (d deoxyribose, r ribose, m 2'-O-methyl, p phosphodiester). Strings are as the collection lists them; they lack the last nucleoside at the 3' end of the tested compound. [moe] = 2'-O-(2-methoxyethyl) (MOE); [sp] = phosphorothioate linkage; [m5C] = 5-methylcytosine

The data set deals with ATXN2. Briefly: mouse, dose not given. Particulars: ASO.
In the case of “RNA1{[moe]([m5C])[sp].[moe](T)p.[moe](G)p.[moe]([m5C])p.d(T)[sp].d(A)[sp].d(A)[sp].d([m5C])[sp].d(T)[sp].d(G)[sp].d(G)[sp].d(T)[sp].d(T)[sp].d(T)[sp].[moe](G)p.[moe]([m5C])p.[moe]([m5C])p.[moe]([m5C])[sp].[moe](T)}$$$$ (last 3' nucleoside missing)”, the 3 h FOB score is 1 score 0-7. “RNA1{[moe]([m5C])[sp].[moe](T)p.[moe](T)p.[moe](A)p.[moe](G)[sp].d(A)[sp].d(G)[sp].d(T)[sp].d(T)[sp].d(T)[sp].d(T)[sp].d(T)[sp].d(G)[sp].[moe]([m5C])p.[moe]([m5C])p.[moe](T)[sp].[moe](T)}$$$$ (last 3' nucleoside missing)” showed a 3 h FOB score of 6 score 0-7.

As to “RNA1{[moe]([m5C])[sp].[moe](T)p.[moe](T)p.[moe](A)p.[moe](G)p.[moe](A)p.d(G)[sp].d(T)[sp].d(T)[sp].d(T)[sp].d(T)[sp].d(T)[sp].d(G)[sp].d([m5C])[sp].d([m5C])[sp].d(T)[sp].[moe](T)p.[moe]([m5C])[sp].[moe]([m5C])}$$$$ (last 3' nucleoside missing)”, the 3 h FOB score came to 4.5 score 0-7.

With “RNA1{[moe]([m5C])[sp].[moe](T)p.[moe](T)p.[moe](A)p.[moe](G)p.d(A)[sp].d(G)[sp].d(T)[sp].d(T)[sp].d(T)[sp].d(T)[sp].d(T)[sp].d(G)[sp].d([m5C])[sp].d([m5C])[sp].[moe](T)p.[moe](T)p.[moe]([m5C])[sp].[moe]([m5C])}$$$$ (last 3' nucleoside missing)”, the 3 h FOB score is 4 score 0-7. As for “RNA1{[moe]([m5C])[sp].[moe](T)p.[moe](T)p.[moe](A)p.d(G)[sp].d(A)[sp].d(G)[sp].d(T)[sp].d(T)[sp].d(T)[sp].d(T)[sp].d(T)[sp].d(G)[sp].d([m5C])[sp].[moe]([m5C])p.[moe](T)p.[moe](T)p.[moe]([m5C])[sp].[moe]([m5C])}$$$$ (last 3' nucleoside missing)”, the 3 h FOB score came out at 5.5 score 0-7. As to “RNA1{[moe]([m5C])[sp].[moe](T)p.[moe](T)p.[moe](G)p.[moe](T)p.d(A)[sp].d([m5C])[sp].d(T)[sp].d(T)[sp].d([m5C])[sp].d(A)[sp].d([m5C])[sp].d(A)[sp].d(T)[sp].d(T)[sp].[moe](T)p.[moe](G)p.[moe](G)[sp].[moe](A)}$$$$ (last 3' nucleoside missing)”, the 3 h FOB score was determined as 2.25 score 0-7.

The substance “RNA1{[moe]([m5C])[sp].[moe](T)p.[moe](T)p.[moe](G)p.[moe](T)p.d(T)[sp].d(G)[sp].d(T)[sp].d(T)[sp].d(G)[sp].d(T)[sp].d(T)[sp].d(T)[sp].d(A)[sp].d([m5C])[sp].[moe](A)p.[moe](T)p.[moe](T)[sp].[moe](A)}$$$$ (last 3' nucleoside missing)” had a 3 h FOB score of 3 score 0-7.

“RNA1{[moe]([m5C])[sp].[moe](T)p.[moe](T)p.[moe](T)p.[moe](T)[sp].d([m5C])[sp].d(T)[sp].d([m5C])[sp].d(A)[sp].d(T)[sp].d(G)[sp].d(T)[sp].d(G)[sp].[moe]([m5C])p.[moe](G)p.[moe](G)[sp].[moe]([m5C])}$$$$ (last 3' nucleoside missing)” came in with a 3 h FOB score of 5.5 score 0-7.

“RNA1{[moe]([m5C])[sp].[moe](T)p.[moe](T)p.[moe](T)p.[moe](T)p.d([m5C])[sp].d(T)[sp].d([m5C])[sp].d(A)[sp].d(T)[sp].d(G)[sp].d(T)[sp].d(G)[sp].d([m5C])[sp].d(G)[sp].[moe](G)p.[moe]([m5C])p.[moe](A)[sp].[moe](T)}$$$$ (last 3' nucleoside missing)”: the 3 h FOB score stood at 6.25 score 0-7. As to “RNA1{[moe]([m5C])[sp].[moe](T)p.[moe](T)p.[moe]([m5C])p.[moe](T)[sp].d([m5C])[sp].d(T)[sp].d(A)[sp].d(T)[sp].d(T)[sp].d(T)[sp].d([m5C])[sp].d(T)[sp].[moe](T)p.[moe](T)p.[moe](G)[sp].[moe](T)}$$$$ (last 3' nucleoside missing)”, the 3 h FOB score was 0 score 0-7. The figure for “RNA1{[moe]([m5C])[sp].[moe](T)p.[moe](T)p.[moe]([m5C])p.[moe](T)p.d(G)[sp].d([m5C])[sp].d(T)[sp].d(A)[sp].d(A)[sp].d([m5C])[sp].d(T)[sp].d(G)[sp].d(G)[sp].d(T)[sp].[moe](T)p.[moe](T)p.[moe](G)[sp].[moe]([m5C])}$$$$ (last 3' nucleoside missing)” is 2.5 score 0-7; for “RNA1{[moe]([m5C])[sp].[moe](T)p.[moe](T)p.[moe]([m5C])p.[moe](T)p.d([m5C])[sp].d(T)[sp].d(A)[sp].d(T)[sp].d(T)[sp].d(T)[sp].d([m5C])[sp].d(T)[sp].d(T)[sp].d(T)[sp].[moe](G)p.[moe](T)p.[moe]([m5C])[sp].[moe]([m5C])}$$$$ (last 3' nucleoside missing)” it is 1 score 0-7; for “RNA1{[moe]([m5C])[sp].[moe](T)p.[moe]([m5C])p.[moe](T)p.[moe](A)[sp].d(T)[sp].d(T)[sp].d(T)[sp].d([m5C])[sp].d(T)[sp].d(T)[sp].d(T)[sp].d(G)[sp].[moe](T)p.[moe]([m5C])p.[moe]([m5C])[sp].[moe](A)}$$$$ (last 3' nucleoside missing)” it is 3.5 score 0-7. “RNA1{[moe]([m5C])[sp].[moe](T)p.[moe]([m5C])p.[moe](T)p.[moe](A)p.d(T)[sp].d(T)[sp].d(T)[sp].d([m5C])[sp].d(T)[sp].d(T)[sp].d(T)[sp].d(G)[sp].d(T)[sp].d([m5C])[sp].[moe]([m5C])p.[moe](A)p.[moe](G)[sp].[moe](G)}$$$$ (last 3' nucleoside missing)” showed a 3 h FOB score of 3.5 score 0-7.

Substance “RNA1{[moe]([m5C])[sp].[moe](T)p.[moe]([m5C])p.[moe](T)p.[moe]([m5C])[sp].d([m5C])[sp].d(A)[sp].d(T)[sp].d(T)[sp].d(A)[sp].d(T)[sp].d(T)[sp].d(T)[sp].[moe]([m5C])p.[moe](T)p.[moe](T)[sp].[moe]([m5C])}$$$$ (last 3' nucleoside missing)” showed a 3 h FOB score of 0 score 0-7. “RNA1{[moe]([m5C])[sp].[moe](T)p.[moe]([m5C])p.[moe](T)p.[moe]([m5C])[sp].d([m5C])[sp].d(A)[sp].d(T)[sp].d(T)[sp].d(A)[sp].d(T)[sp].d(T)[sp].d(T)[sp].d([m5C])[sp].d(T)[sp].[moe](T)p.[moe]([m5C])p.[moe](A)[sp].[moe]([m5C])}$$$$ (last 3' nucleoside missing)” registered a 3 h FOB score of 5.75 score 0-7. The substance “RNA1{[moe]([m5C])[sp].[moe](T)p.[moe]([m5C])p.[moe](T)p.[moe]([m5C])p.[moe]([m5C])p.d(A)[sp].d(T)[sp].d(T)[sp].d(A)[sp].d(T)[sp].d(T)[sp].d(T)[sp].d([m5C])[sp].d(T)[sp].d(T)[sp].[moe]([m5C])p.[moe](A)[sp].[moe]([m5C])}$$$$ (last 3' nucleoside missing)” gave a 3 h FOB score of 2 score 0-7. Next, “RNA1{[moe]([m5C])[sp].[moe](T)p.[moe]([m5C])p.[moe](T)p.[moe]([m5C])p.d([m5C])[sp].d(A)[sp].d(T)[sp].d(T)[sp].d(A)[sp].d(T)[sp].d(T)[sp].d(T)[sp].d([m5C])[sp].d(T)[sp].[moe](T)p.[moe]([m5C])p.[moe](A)[sp].[moe]([m5C])}$$$$ (last 3' nucleoside missing)”: 4 score 0-7; “RNA1{[moe]([m5C])[sp].[moe](T)p.[moe]([m5C])p.[moe](T)p.d([m5C])[sp].d([m5C])[sp].d(A)[sp].d(T)[sp].d(T)[sp].d(A)[sp].d(T)[sp].d(T)[sp].d(T)[sp].d([m5C])[sp].[moe](T)p.[moe](T)p.[moe]([m5C])p.[moe](A)[sp].[moe]([m5C])}$$$$ (last 3' nucleoside missing)”: 3 score 0-7; “RNA1{[moe]([m5C])[sp].[moe](T)p.[moe]([m5C])p.[moe]([m5C])p.[moe](A)[sp].d(T)[sp].d(T)[sp].d(A)[sp].d(T)[sp].d(T)[sp].d(T)[sp].d([m5C])[sp].d(T)[sp].[moe](T)p.[moe]([m5C])p.[moe](A)[sp].[moe]([m5C])}$$$$ (last 3' nucleoside missing)”: 3.5 score 0-7. The substance “RNA1{[moe]([m5C])[sp].[moe](T)p.[moe]([m5C])p.[moe]([m5C])p.[moe](A)p.d(T)[sp].d(T)[sp].d(A)[sp].d(T)[sp].d(T)[sp].d(T)[sp].d([m5C])[sp].d(T)[sp].d(T)[sp].d([m5C])[sp].[moe](A)p.[moe]([m5C])p.[moe](G)[sp].[moe](T)}$$$$ (last 3' nucleoside missing)” showed a 3 h FOB score of 1 score 0-7. The figure for “RNA1{[moe]([m5C])[sp].[moe](T)p.[moe]([m5C])p.[moe]([m5C])p.[moe](T)[sp].d(A)[sp].d(T)[sp].d([m5C])[sp].d(A)[sp].d(T)[sp].d([m5C])[sp].d(A)[sp].d(T)[sp].[moe](T)p.[moe](T)p.[moe](T)[sp].[moe]([m5C])}$$$$ (last 3' nucleoside missing)” is 0 score 0-7; for “RNA1{[moe]([m5C])[sp].[moe](T)p.[moe]([m5C])p.[moe]([m5C])p.[moe](T)p.d(A)[sp].d(T)[sp].d([m5C])[sp].d(A)[sp].d(T)[sp].d([m5C])[sp].d(A)[sp].d(T)[sp].d(T)[sp].d(T)[sp].[moe](T)p.[moe]([m5C])p.[moe]([m5C])[sp].[moe](A)}$$$$ (last 3' nucleoside missing)” it is 1 score 0-7; for “RNA1{[moe]([m5C])[sp].[moe]([m5C])[sp].[moe]([m5C])[sp].[moe](A)[sp].[moe](A)[sp].d(A)[sp].d(G)[sp].d(G)[sp].d(G)[sp].d(T)[sp].d(T)[sp].d(A)[sp].d(A)[sp].d(T)[sp].d(T)[sp].[moe](A)[sp].[moe](G)[sp].[moe](G)[sp].[moe](A)}$$$$ (last 3' nucleoside missing)” it is 7 score 0-7. The substance “RNA1{[moe]([m5C])[sp].[moe]([m5C])[sp].[moe]([m5C])[sp].[moe](A)[sp].[moe](T)[sp].d(A)[sp].d([m5C])[sp].d(G)[sp].d([m5C])[sp].d(G)[sp].d(G)[sp].d(T)[sp].d(G)[sp].d(A)[sp].d(A)[sp].[moe](T)[sp].[moe](T)[sp].[moe]([m5C])[sp].[moe](T)}$$$$ (last 3' nucleoside missing)” came in with a 3 h FOB score of 7 score 0-7.
